Legend:
Assay type in all cases: cell-based
[1] = test system: Phaeomoniella chlamydospora; experiment: Microtitre test, growth inhibition (optical density 405 nm); conditions: tested at 125, 31, 8, 2, 0.5 and 0.125 ppm a.i.; 7 and 14 days' incubation at 23° C.
Protocol: (§1) The products were provided as technical quality active ingredient. Stock solutions of the active ingredients were prepared in DMSO at a concentration of 10 000 ppm a.i. All products were tested at 125, 31, 8, 2, 0.5 and 0.125 ppm a.i.; the DMSO concentration was the same in all dilutions.
(§2) Spore suspensions of the test fungi were prepared in a yeast extract, Bacto peptone and glycerol liquid medium.
(§3) Equal volumes of test compound and spore suspension were added, in triplicate, to the wells of 96-well microtitre plates. The optical densities of the wells were measured with the aid of a photometer at 405 nm immediately after preparation.
(§4) Incubation of the plates followed at 23° C. Further optical density measurements were made after 7 and 14 days' incubation. Growth in the treated wells was compared with the growth in the control (=water) wells.

Ganoderma sp. = experiment: Mycelium growth inhibition on PDA Petri dishes; conditions: mean of 3 repetitions
Protocol: (§5) The concentrations of active ingredient added to the culture medium were determined previously by diffusion of the product in agar inoculated for the corresponding species.
(§6) Subsequently the diameters of the pathogen growths (mm) were determined visually until the […] (pathogen in PDA medium without fungicide) fully colonised the Petri dishes.
(§7) Levels of inhibition of mycelium growth for different fungal species in relation to fungicide concentration. The results are expressed as percentages and represent the mean of 3 repetitions

[2] = test system: Phaeomoniella chlamydospora; experiment: Mycelium growth inhibition on PDA Petri dishes; conditions: mean of 3 repetitions
Protocol: (§8) Test pathogens were Phaeoacremonium sp., Phaemoniella chlamydospora and Fomitiporella vitis (pathogens associated with the Esca disease) as well as Cylindrocarpon destructans and Botryosphaeria sp. (pathogens frequently isolated from vine wood with Esca symptoms).
as §5, §6, §7

Botryosphaeria sp. = experiment: Mycelium growth inhibition on PDA Petri dishes; conditions: mean of 3 repetitions
Protocol: as §8, §5, §6, §7

Fomitiporella vitis = experiment: Mycelium growth inhibition on PDA Petri dishes; conditions: mean of 3 repetitions
Protocol: as §8, §5, §6, §7

[3] = test system: Cylindrocarpon destructans; experiment: Mycelium growth inhibition on PDA Petri dishes; conditions: mean of 3 repetitions
Protocol: as §8, §5, §6, §7

Phaeoacremonium sp. = experiment: Mycelium growth inhibition on PDA Petri dishes; conditions: mean of 3 repetitions
Protocol: as §8, §5, §6, §7

[4] = test system: Phaeoacremonium aleophilum; experiment: Microtitre test, growth inhibition (optical density 405 nm); conditions: tested at 125, 31, 8, 2, 0.5 and 0.125 ppm a.i.; 7 and 14 days' incubation at 23° C.
Protocol: as §1, §2, §3, §4

[5] = 0.1 ppm active ingredient (as Comet)
[6] = 1 ppm active ingredient (as Comet)
[7] = 10 ppm active ingredient (as Comet)
[8] = 100 ppm active ingredient (as Comet)
[9] = 1000 ppm active ingredient (as Comet)

CO/N=C(/C(=O)OC)c1ccccc1COc1ccccc1C [kresoxim-methyl]
inhibition of the growth of Phaeomoniella chlamydospora [1]: strong to very strong

COC(=O)N(OC)c1ccccc1COc1ccn(-c2ccc(Cl)cc2)n1 [pyraclostrobin]
Percentage mycelium inhibition (Ganoderma sp.; [5]): 21.18%
Percentage mycelium inhibition (Ganoderma sp.; [6]): 65.88%
Percentage mycelium inhibition (Ganoderma sp.; [7]): 91.37%
Percentage mycelium inhibition (Ganoderma sp.; [8]): 100.00%
Percentage mycelium inhibition (Ganoderma sp.; [9]): 100.00%
Percentage mycelium inhibition [2, 5]: 64.91%
Percentage mycelium inhibition [2, 6]: 93.57%
Percentage mycelium inhibition [2, 7]: 95.32%
Percentage mycelium inhibition [2, 8]: 96.49%
Percentage mycelium inhibition [2, 9]: 100.00%
Percentage mycelium inhibition (Botryosphaeria sp.; [5]): 23.14%
Percentage mycelium inhibition (Botryosphaeria sp.; [6]): 48.04%
Percentage mycelium inhibition (Botryosphaeria sp.; [7]): 66.08%
Percentage mycelium inhibition (Botryosphaeria sp.; [8]): 88.43%
Percentage mycelium inhibition (Botryosphaeria sp.; [9]): 100.00%
Percentage mycelium inhibition (Fomitiporella vitis; [5]): 46.47%
Percentage mycelium inhibition (Fomitiporella vitis; [6]): 92.75%
Percentage mycelium inhibition (Fomitiporella vitis; [7]): 98.62%
Percentage mycelium inhibition (Fomitiporella vitis; [8]): 100.00%
Percentage mycelium inhibition (Fomitiporella vitis; [9]): 100.00%
Percentage mycelium inhibition [3, 5]: 33.33%
Percentage mycelium inhibition [3, 6]: 69.61%
Percentage mycelium inhibition [3, 7]: 86.67%
Percentage mycelium inhibition [3, 8]: 90.59%
Percentage mycelium inhibition [3, 9]: 100.00%
Percentage mycelium inhibition (Phaeoacremonium sp.; [5]): 35.65%
Percentage mycelium inhibition (Phaeoacremonium sp.; [6]): 61.00%
Percentage mycelium inhibition (Phaeoacremonium sp.; [7]): 77.27%
Percentage mycelium inhibition (Phaeoacremonium sp.; [8]): 88.28%
Percentage mycelium inhibition (Phaeoacremonium sp.; [9]): 100.00%
inhibition of the growth of Phaeoacremonium aleophilum [4]: strong to very strong
inhibition of the growth of Phaeomoniella chlamydospora [1]: strong to very strong

From US8273686B2, “Method for combating phytopathogenic fungi” (priority 2006, dated 2012)
